pIC50: −log10 of the molar value. Where two headings read alike, the source gives them in different places.
Columns and labels:
[1] = tested on: ob/ob mice; assay: Oral glucose tolerance test after 7 days dosing in ob/ob mice; format: in vivo
Description: The study started with 42 male ob/ob mice, 10 weeks of age. The mice were fed a normal chow diet during the whole study. After 1 week of acclimatization, mice were matched on basis of body weight, plasma glucose and insulin (after 4 h-fasting) and divided in 3 groups of 10 animals (t=0 days). For the next 6 days, mice received vehicle (control group 1) or 5 mg/kg/day (group 2) or 50 mg/kg/day (group 3) of the compound of formula (G2) (test compound) around 12.00 h by gavage (5 ml/kg mouse). On the 7th day, mice were fasted at 8.00 h and received the last gavage (vehicle for group 1 or 5 mg/kg/day, test compound for group 2 or 50 mg/kg/day test compound for group 3) at 12.00 h. At 13.00 h the mice subsequently received a glucose bolus (2 g/kg mouse, 5 ml/kg mouse) by gavage as start of the oral glucose tolerance test (OGTT). Measurement of blood glucose and plasma collection was at t=0 (just before gavage of glucose) and at t=5, 15, 30, 45, 60 and 120 min after glucose bolus. After the OGTT, mice were sacrificed with CO2 and additional blood was collected in heparin-coated tubes via heart puncture (>100 μl plasma was obtained) and heparin-plasma samples were analysed.
On day 0 mice were randomized on body weight and 4 h fasted plasma glucose and insulin levels (table 3.1.a). Twelve out of 42 mice were excluded, to create more homogenous groups with respect to body weight, plasma glucose and insulin.

[2] = Storage stability; format: physicochemical; settings: all normal laboratory storage conditions
[3] = tested on: ddy mice; assay: Serum insulin levels in ddy mice with or without glucose load; format: in vivo; settings: 30 minutes
Description: 7 week old ddy mice (weight 30-31 g) were divided into 4 groups (groups 1 to 4). Each group had 3-4 mice. All test mouse were fasted for 16 hours before being given the test compounds.
Group 1: Control. un-treated mice (without glucose and G2). Group 2: Oral administration of glucose alone. Group 3: Oral administration of G2 alone. Group 4: Oral administration of G2 with glucose.
Serum insulin levels were measured after 30 minutes (see FIG. 2).
FIG. 3 Effects of G2 (BR1) (100 mg/kg body weight) on serum insulin levels.
Serum insulin concentrations of male ddy mouse after 30 minutes later an oral load with or without D-glucose (2.5 g/kg body weight). Each value represents the mean±SEM (n=3-4). * P<0.05, ** P<0.01.

[4] = target: T1, rat intestinal lactase (Rattus norvegicus, UniProt Q02401); assay: Rat intestinal glycosidases: lactase; format: biochemical; settings: rat intestinal brush border membranes
T1 construct: Enzyme activities were prepared from brush border membranes of rat small intestine; from tissue; host or cells: rat small intestine brush border membranes
Description: (§1) Enzyme activities were prepared from brush border membranes of rat small intestine using disaccharides as substrates as described by Yasuda et al., 2002.

[5] = tested on: α-glucosidases; assay: Inhibition of α-glucosidases (summary statement); format: biochemical; settings: only just reaching 50% inhibition at nearly mM concentration
Text: The results tabulated below were obtained using commercially available glycosidases and p-nitrophenyl-substrates using standard methods described for example by Watson et al (1997) Phytochemistry 46 255-259. All enzymes and substrates were bought from Sigma. Enzyme and substrate solutions were made using sodium phosphate buffers at the pH optima values. The enzymes used were α-D-glucosidase Saccharomyces cerevisiae, Bacillus stearothermophilus, Oryzae sativa), β-D-glucosidase (Almond), α-D-mannosidase (Jack bean), α-D-galactosidase (Green coffee beans), β-D-galactosidase (Bovine liver), α-L-fucosidase (Bovine kidney), N-acetyl-β-D-glucosaminidase (Bovine kidney, Jack bean, Aspergillus oryzae), Naringinase (Penicillium decumbens) and amyloglucosidase (Aspergillus niger). All enzymes were used with the appropriate p-nitrophenyl substrates (5 mM). Amyloglucosidase activity was measured using amylopectin (0.1%) (Merck) mixed with sodium phosphate buffer, pH 4.5 in a glass bottle, and healed in a boiling water bath for 20 minutes to dissolve with released glucose measured using ‘Trinder’ glucose detection solution (Sigma).

[6] = tested on: ddy mice; assay: Blood glucose levels after maltose loading in ddy mice; format: in vivo
Description: 7 weeks old ddy mice (weight 30-31 g) were divided into 4 groups (from group 1 to 4). Each group had 5 mouse. All test mouse were fasted for 16 hours for this experiment.
The aim of this experiment was to show if G2 (here coded as BR1) could suppress a hyperglycemia after a meal. Thus, maltose was chosen as the loading sugar as used for Bayer's glucosidase inhibitor Glucobay. Either maltose (2.5 g/kg) or Surose (2.5 g/kg) or starch (1.0 g/kg) can be used but maltose is most popular.
Group 1: Control. Maltose-loading only (without G2 condition). Group 2: oral administration of G2 with maltose (same time). Group 3: intraperitoneal injection of G2 and oral administration of maltose (same time). Group 4: oral administration of G2 30 minutes before maltose-loading. (Glucobay is taken 30 minutes before meals).

[7] = target: rat intestinal trehalase (Rattus norvegicus, UniProt G3V7Q9); assay: Rat intestinal glycosidases: trehalase; format: biochemical; settings: rat intestinal brush border membranes
Description: as §1

[8] = target: rat intestinal maltase; assay: Rat intestinal glycosidases: maltase; format: biochemical; settings: rat intestinal brush border membranes
Description: as §1

[9] = Uptake of G2 after oral Gymnema water extract, urine monitoring; format: in vivo, human; settings: one volunteer
Description: In a preliminary experiment on one volunteer to determine if G2 was readily absorbed from the gastrointestinal tract, a water extract of Gymnema leaves obtained commercially containing 7 mg of G2 was drunk and urine monitored for G2 over 4 hours (0-2 hours and 2-4 hours). An internal standard of 1 mg of castanospermine was added to the two samples of urine prior to applying to a cation exchange resin (IR120 in the H^+ form). After washing the resin with copious water, the bound material was displaced wing excess 2M NH4^+ solution and dried for GC-MS analysis. The samples were derivatised using Pierce Tri-Sil to produce trimethyl-silyl-derivatives of the imino sugars and imino sugar acids. GC-MS was carried out on a Perkin Elmer TurboMass Gold mass spectrometer, with a quadrupole ion filter system, which was run at 250° C. constantly during analysis. The detector mass range was set to 100 to 650 amu. The temperature of the transfer line (GC to MS) was held at 250° C. The GC column was a […] fused-silica column (Varian ‘Factor Four’ VF-5 ms column, 25 m×0.25 mm i.d., 0.25 μm phase thickness). The carrier gas (helium) flow rate was 1 ml min-1. G2 gives a characteristic mass spectrum as the tms derivative and was well resolved allowing quantification.

[10] = target: rat intestinal maltase; settings: from Yasuda et al., 2002; cited from earlier work
[11] = 5 mg/kg/day or 50 mg/kg/day by gavage, compared to control (vehicle) group

rat intestinal trehalase, sequence (G3V7Q9 21-553): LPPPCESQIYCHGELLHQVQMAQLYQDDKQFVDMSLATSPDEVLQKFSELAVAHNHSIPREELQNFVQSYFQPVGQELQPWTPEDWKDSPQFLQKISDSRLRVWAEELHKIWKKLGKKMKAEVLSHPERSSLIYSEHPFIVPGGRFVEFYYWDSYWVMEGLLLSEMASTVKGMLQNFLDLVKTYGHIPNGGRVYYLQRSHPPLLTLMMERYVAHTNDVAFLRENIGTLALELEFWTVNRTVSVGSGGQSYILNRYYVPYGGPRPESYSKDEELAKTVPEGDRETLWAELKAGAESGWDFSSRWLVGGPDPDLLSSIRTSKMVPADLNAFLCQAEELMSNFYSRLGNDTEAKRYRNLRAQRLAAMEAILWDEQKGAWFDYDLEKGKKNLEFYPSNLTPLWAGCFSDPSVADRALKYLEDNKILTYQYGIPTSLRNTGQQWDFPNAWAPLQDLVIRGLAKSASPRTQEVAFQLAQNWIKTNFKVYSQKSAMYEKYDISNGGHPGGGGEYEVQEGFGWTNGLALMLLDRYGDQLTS
T1 sequence (Q02401 868-1928): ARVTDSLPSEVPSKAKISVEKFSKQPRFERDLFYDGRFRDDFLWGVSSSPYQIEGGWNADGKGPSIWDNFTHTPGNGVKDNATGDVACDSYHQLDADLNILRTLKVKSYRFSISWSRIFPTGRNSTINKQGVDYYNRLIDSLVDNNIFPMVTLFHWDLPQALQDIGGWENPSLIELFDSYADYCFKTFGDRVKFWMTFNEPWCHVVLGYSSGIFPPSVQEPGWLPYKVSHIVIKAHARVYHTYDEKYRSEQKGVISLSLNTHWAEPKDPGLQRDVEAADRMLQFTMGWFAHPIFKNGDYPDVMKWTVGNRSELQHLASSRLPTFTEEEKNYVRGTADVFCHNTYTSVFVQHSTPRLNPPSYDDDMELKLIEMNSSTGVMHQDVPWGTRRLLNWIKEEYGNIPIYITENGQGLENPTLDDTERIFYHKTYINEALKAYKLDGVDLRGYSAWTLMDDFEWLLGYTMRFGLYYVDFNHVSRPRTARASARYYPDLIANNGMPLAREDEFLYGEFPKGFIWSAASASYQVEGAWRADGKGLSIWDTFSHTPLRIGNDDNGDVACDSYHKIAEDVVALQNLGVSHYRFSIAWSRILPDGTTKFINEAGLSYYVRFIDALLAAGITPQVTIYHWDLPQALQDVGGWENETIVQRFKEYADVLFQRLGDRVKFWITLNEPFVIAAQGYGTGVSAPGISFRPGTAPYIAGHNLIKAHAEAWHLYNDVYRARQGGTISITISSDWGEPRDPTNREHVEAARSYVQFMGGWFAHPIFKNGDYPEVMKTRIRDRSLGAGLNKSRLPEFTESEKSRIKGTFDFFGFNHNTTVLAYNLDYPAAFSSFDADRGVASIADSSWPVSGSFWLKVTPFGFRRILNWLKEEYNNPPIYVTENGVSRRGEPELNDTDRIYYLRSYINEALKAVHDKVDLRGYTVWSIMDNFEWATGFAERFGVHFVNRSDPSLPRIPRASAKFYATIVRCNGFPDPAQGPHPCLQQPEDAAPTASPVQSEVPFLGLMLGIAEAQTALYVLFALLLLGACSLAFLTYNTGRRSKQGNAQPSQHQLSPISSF

Row | SMILES | plasma insulin concentrations 120 min after glucose bolus ([1]; 5 mg/kg and 50 mg/kg groups vs control) | body weight [1, 11] | food intake [1, 11] | plasma insulin at 15, 30, 45 and 60 min ([1]; after glucose bolus 2 g/kg, 5 and 50 mg/kg/day groups vs control) | plasma insulin levels at 0 min ([1]; just before oral glucose load, 5 and 50 mg/kg/day groups vs control, reduction not significant) | stability [2] | serum insulin level, G2 with glucose ([3]; 100 mg/kg body weight oral with D-glucose 2.5 g/kg, vs glucose alone) | serum insulin level, G2 alone ([3]; 100 mg/kg body weight oral, without glucose, vs un-treated) | pIC50 [4] | inhibition of α-glucosidases [5] | absorption into the blood ([6]; inferred from p.o. and i.p. curves being almost same) | blood glucose level (hyperglycemia) after maltose loading ([6]; p.o. with maltose, i.p. with maltose, or p.o. 30 minutes before maltose (2.5 g/kg)) | pIC50 [7] | pIC50 [8] | G2 recovered in urine ([9]; oral water extract containing 7 mg of G2, within four hours) | G2 in urine ([9]; oral water extract of Gymnema leaves containing 7 mg of G2, urine 0-2 hours and 2-4 hours) | pIC50 [10]
1 | O=C(O)[C@H]1NC[C@H](O)[C@@H](O)[C@@H]1O [Compound G2, 2S,3R,4R,5S-trihydroxypiperidine-2-carboxylic acid] | significantly increased | not significantly changed | not significantly changed | No significant changes | reduced somewhat | stable | much effective than glucose alone | did not affect the insulin level | < 3.00 | very weak inhibitor | absorbed into the blood very quickly | suppress hyperglycemia | < 3.00 | < 3.00 | ~7 mg | detected | –
2 | OC[C@H]1NC[C@H](O)[C@@H](O)[C@@H]1O [DNJ, 1-deoxynojirimycin, reference compound] | – | – | – | – | – | – | – | – | – | – | – | – | – | – | – | – | 6.44

Source: patent US20110015226A1, “Treatment of Energy Utilization Disease” (SUMMIT CORPORATION PLC, priority 2008, published 2011)
